# From patent US10870647B2, “Imidazopyridine derivative, method for preparing same, and pharmaceutical composition containing same as active ingredient for preventing or treating cancer” (DAEGU-GYEONGBUK MEDICAL INNOVATION FOUNDATION, priority 2016, dated 2020)
# Columns and labels:
# Assay in all cases: Kinase selectivity, scanMAX Kinase assay panel (DiscoverX), % control at 1 uM
# Format in all cases: binding
# [1] = target: T1, scanMAX Kinase assay panel (Homo sapiens, UniProt O00141); details: SGK; 1 uM; read-out: Percent Control (%)
# T1 construct: purchased DiscoverX
# T1 sequence (O00141 1-431): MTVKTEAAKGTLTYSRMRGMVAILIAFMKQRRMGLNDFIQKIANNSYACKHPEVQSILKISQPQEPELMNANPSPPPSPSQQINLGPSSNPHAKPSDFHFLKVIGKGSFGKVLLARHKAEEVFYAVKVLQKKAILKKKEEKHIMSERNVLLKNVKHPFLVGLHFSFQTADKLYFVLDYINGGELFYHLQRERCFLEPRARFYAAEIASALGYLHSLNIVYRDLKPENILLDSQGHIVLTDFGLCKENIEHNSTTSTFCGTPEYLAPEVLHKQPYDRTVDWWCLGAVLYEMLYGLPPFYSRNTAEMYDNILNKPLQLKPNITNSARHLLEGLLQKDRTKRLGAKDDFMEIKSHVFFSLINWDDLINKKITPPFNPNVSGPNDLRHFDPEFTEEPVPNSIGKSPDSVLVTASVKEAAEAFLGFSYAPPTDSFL
# Procedure, shortened: (§1)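 Each kinase was first exposed to the test compound at 1 uM in DMSO. Signal was then normalised to positive and negative controls to give % control. Finally, any enzyme showing <35% control was judged inhibited.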
# [2] = target: T2, scanMAX Kinase assay panel (Homo sapiens, UniProt O15530); details: PDPK1; 1 uM; read-out: Percent Control (%)
# T2 construct: purchased DiscoverX
# T2 sequence (O15530 1-556): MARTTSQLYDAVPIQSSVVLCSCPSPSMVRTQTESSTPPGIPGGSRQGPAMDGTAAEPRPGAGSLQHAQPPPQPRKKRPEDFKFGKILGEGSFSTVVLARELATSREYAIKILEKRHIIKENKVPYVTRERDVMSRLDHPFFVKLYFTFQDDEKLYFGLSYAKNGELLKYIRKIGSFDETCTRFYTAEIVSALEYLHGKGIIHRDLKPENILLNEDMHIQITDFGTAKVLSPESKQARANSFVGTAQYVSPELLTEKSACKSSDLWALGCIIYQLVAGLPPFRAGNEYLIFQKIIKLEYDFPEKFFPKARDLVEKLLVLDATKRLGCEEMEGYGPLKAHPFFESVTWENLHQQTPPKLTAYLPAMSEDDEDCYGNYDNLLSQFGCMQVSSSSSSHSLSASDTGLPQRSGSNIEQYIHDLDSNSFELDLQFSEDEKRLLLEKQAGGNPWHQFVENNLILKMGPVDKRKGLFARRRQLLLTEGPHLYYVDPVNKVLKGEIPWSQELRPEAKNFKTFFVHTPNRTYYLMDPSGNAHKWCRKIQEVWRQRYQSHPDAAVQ
# Procedure, shortened: as §1
# [3] = target: T3, scanMAX Kinase assay panel (Homo sapiens, UniProt P57059); details: SIK; 1 uM; read-out: Percent Control (%)
# T3 construct: purchased DiscoverX
# Procedure, shortened: as §1
# [4] = target: T4, scanMAX Kinase assay panel (Homo sapiens, UniProt Q04771); details: ACVR1; 1 uM; read-out: Percent Control (%)
# T4 construct: purchased DiscoverX
# T4 sequence (Q04771 21-509): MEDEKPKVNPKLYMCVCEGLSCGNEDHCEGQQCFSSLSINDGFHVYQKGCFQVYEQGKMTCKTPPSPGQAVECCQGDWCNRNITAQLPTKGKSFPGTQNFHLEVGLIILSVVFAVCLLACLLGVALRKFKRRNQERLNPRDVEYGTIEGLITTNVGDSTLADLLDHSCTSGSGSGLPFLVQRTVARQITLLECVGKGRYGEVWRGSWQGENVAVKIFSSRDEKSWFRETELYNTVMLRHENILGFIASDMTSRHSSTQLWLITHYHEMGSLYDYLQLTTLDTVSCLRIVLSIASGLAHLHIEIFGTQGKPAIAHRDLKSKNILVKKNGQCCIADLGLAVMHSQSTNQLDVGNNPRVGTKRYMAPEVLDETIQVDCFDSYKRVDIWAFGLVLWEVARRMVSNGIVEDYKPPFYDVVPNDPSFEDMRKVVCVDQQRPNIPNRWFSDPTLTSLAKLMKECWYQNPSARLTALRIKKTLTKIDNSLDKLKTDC
# Procedure, shortened: as §1
# [5] = target: T5, scanMAX Kinase assay panel (Homo sapiens, UniProt Q12852); details: DLK; 1 uM; read-out: Percent Control (%)
# T5 construct: purchased DiscoverX
# T5 sequence (Q12852 1-859): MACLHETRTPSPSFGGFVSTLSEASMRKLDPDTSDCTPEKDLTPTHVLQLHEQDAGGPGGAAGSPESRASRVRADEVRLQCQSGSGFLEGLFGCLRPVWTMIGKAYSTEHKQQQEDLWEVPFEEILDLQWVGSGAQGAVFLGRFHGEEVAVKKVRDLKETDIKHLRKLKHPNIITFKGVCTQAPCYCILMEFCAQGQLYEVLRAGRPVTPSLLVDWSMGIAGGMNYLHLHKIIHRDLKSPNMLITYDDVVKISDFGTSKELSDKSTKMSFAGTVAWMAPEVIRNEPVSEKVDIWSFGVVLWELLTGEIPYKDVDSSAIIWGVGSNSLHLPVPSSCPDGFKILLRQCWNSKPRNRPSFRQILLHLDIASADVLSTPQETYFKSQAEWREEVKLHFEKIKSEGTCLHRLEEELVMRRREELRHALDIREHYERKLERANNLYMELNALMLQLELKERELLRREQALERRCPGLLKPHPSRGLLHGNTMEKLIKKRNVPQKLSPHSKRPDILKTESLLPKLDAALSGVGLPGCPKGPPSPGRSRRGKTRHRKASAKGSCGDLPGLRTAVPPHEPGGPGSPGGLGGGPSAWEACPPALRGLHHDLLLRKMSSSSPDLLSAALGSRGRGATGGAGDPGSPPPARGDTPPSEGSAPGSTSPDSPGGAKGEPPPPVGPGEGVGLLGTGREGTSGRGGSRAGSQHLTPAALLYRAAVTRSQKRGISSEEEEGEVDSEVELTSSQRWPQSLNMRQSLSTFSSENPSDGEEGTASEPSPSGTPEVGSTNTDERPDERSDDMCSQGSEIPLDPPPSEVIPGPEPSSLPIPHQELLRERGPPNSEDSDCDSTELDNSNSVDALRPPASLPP
# Procedure, shortened: as §1
# [6] = target: T6, scanMAX Kinase assay panel (Homo sapiens, UniProt Q9NYY3); details: PLK2; 1 uM; read-out: Percent Control (%)
# T6 construct: purchased DiscoverX
# Procedure, shortened: as §1
# T6 sequence (Q9NYY3 whole entry): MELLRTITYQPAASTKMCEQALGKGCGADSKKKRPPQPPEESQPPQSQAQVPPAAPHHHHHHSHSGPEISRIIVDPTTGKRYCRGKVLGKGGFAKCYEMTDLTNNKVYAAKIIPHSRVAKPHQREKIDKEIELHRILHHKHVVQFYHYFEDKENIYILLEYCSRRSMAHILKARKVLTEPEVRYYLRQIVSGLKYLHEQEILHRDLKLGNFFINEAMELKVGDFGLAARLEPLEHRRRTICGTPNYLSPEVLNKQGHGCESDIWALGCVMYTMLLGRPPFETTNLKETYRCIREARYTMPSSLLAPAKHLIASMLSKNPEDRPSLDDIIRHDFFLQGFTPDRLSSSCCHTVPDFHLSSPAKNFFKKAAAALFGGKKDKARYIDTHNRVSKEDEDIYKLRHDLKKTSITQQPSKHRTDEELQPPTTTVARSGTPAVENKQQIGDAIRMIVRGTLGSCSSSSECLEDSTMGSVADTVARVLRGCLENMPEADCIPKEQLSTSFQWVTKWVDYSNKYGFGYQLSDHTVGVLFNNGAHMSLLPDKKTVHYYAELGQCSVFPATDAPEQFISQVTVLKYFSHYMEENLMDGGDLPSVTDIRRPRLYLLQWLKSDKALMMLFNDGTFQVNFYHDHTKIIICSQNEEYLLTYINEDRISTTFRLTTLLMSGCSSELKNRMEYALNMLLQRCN
# T3 sequence (P57059 whole entry): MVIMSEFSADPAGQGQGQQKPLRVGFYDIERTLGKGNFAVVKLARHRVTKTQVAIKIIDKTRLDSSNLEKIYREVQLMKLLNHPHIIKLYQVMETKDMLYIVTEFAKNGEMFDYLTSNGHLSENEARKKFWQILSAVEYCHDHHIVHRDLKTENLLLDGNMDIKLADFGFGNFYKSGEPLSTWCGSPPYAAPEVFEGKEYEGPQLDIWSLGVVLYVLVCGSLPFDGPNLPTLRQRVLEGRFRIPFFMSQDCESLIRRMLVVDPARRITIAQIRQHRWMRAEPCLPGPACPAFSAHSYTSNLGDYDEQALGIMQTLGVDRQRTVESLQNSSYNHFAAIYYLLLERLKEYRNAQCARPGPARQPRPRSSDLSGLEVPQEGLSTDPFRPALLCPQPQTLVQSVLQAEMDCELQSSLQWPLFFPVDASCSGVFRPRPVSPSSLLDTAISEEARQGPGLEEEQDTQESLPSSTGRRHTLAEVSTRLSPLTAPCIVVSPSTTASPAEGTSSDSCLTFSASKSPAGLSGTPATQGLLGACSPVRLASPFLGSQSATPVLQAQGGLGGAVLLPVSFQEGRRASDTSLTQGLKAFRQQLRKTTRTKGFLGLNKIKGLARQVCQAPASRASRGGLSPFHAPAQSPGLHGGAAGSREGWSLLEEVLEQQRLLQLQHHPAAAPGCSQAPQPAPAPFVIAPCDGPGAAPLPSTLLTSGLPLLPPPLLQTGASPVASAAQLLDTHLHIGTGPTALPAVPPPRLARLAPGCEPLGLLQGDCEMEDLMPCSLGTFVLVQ
compound,measurement,setting,value
"Cc1ccc(C(=O)Nc2ccc(CN3CCN(C)CC3)c(C(F)(F)F)c2)cc1C#Cc1cnc2c(Nc3cnn(C)c3)cccn12 [Example 1, 4-methyl-3-((8-((1-methyl-1H-pyrazol-4-yl)amino)imidazo[1,2-a]pyridin-3-yl)ethynyl)-N-(4-((4-methylpiperazin-1-yl)methyl)-3-(trifluoromethyl)phenyl)benzamide]",remaining binding at 1 µM,[1],93%
same,remaining binding at 1 µM,[2],50%
same,remaining binding at 1 µM,[3],0%
same,remaining binding at 1 µM,[4],100%
same,remaining binding at 1 µM,[5],29%
same,remaining binding at 1 µM,[6],84%
"Cc1cn(-c2cc(NC(=O)c3ccc(C)c(C#Cc4cnc5c(Nc6cnn(C)c6)cccn45)c3)cc(C(F)(F)F)c2)cn1 [Example 12, 4-methyl-N-(3-(4-methyl-1H-imidazol-1-yl)-5-(trifluoromethyl)phenyl)-3-((8-((1-methyl-1H-pyrazol-4-yl)amino)imidazo[1,2-a]pyridin-3-yl)ethynyl)benzamide]",remaining binding at 1 µM,[1],100%
same,remaining binding at 1 µM,[2],93%
same,remaining binding at 1 µM,[3],5%
same,remaining binding at 1 µM,[4],100%
same,remaining binding at 1 µM,[5],100%
same,remaining binding at 1 µM,[6],100%
Cc1ccc(NC(=O)C2(C(=O)Nc3ccc(F)cc3)CC2)cc1C#Cc1cnc2c(Nc3cnn(C(C)C)c3)cccn12 [Example 78],remaining binding at 1 µM,[1],96%
same,remaining binding at 1 µM,[2],92%
same,remaining binding at 1 µM,[3],25%
same,remaining binding at 1 µM,[4],100%
same,remaining binding at 1 µM,[5],100%
same,remaining binding at 1 µM,[6],62%
